{
  "source": "paper PMC5082894",
  "about": "(PLoS ONE, 2016)",
  "key": {"[1]": {"tested_on": "HIV-1 92HT599 (B-X4)", "assay": "PBMC antiviral assay (RT activity), HIV-1 92HT599", "format": "cell-based", "conditions": "PHA-P-activated PBMCs, 125 TCID50, day 7, RT activity", "description": "(§1) In order to confirm antiretroviral activity of the compounds, using a cell model closer to the pathophysiology, Peripheral Blood Mononuclear Cells (PBMCs) were separated from a buffy-coat from healthy HIV-, HCV-, HBV-seronegative blood donors by Ficoll-Hypaque density gradient centrifugation. The PBMCs were activated by incubation with 1 μg/ml phytohemagglutinin-P (PHA-P; Difco Laboratories) for three days in RPMI 1640 medium supplemented with 10% heat-inactivated fetal calf serum (FCS, +56 ◦C for 45 min), 2mM l-glutamine and a 1% antibiotic cocktail (penicillin, streptomycin, neomycin). After this mitogen activation, PBMCs were cultivated in the same culture medium supplemented with recombinant human interleukin-2 (rHuIL-2; 20 IU/mL) and treated and/or infected. […] All these viruses were amplified in vitro with PHA-P-activated blood mononuclear cells and 50% tissue culture infectious doses (TCID50) were calculated using Kärber’s formula [37], after limited-dilution titration. […] Viral replication was measured by quantifying reverse transcriptase (RT) activity in the cell culture supernatants using the Lenti RT Activity Kit (Cavidi) and AZT was used as reference anti-HIV-1 molecule. EC50 were then calculated and expressed in μM."}, "[2]": {"tested_on": "HIV-1 92UG029 (A-X4)", "assay": "PBMC antiviral assay (RT activity), HIV-1 92UG029", "format": "cell-based", "conditions": "PHA-P-activated PBMCs, 125 TCID50, day 7, RT activity", "description": "as §1"}, "[3]": {"tested_on": "HIV-1 NL4-3", "assay": "MAGI assay, HIV-1 NL4-3", "format": "cell-based", "conditions": "MAGI cells, 48 h, mean of triplicate ± SD", "description": "(§2) Briefly, target cells (HeLa CD4/CCR5-LTR/β-gal; 10^4/well) were plated in 96-well flat microtiter culture plates. […] The test drugs were added initially and viruses were immediately inoculated onto the cells. Forty-eight hours after viral exposure, all blue cells in each well were counted. The cytotoxicity of the compound was determined by the MTT method as previously described. All experiments were performed in triplicate and AZT was used as reference anti-HIV-1 molecule."}, "[4]": {"tested_on": "HIV-1 96USHIPS4 (B-X4/R5)", "assay": "PBMC antiviral assay (RT activity), HIV-1 96USHIPS4", "format": "cell-based", "conditions": "PHA-P-activated PBMCs, 125 TCID50, day 7, RT activity", "description": "as §1"}, "[5]": {"tested_on": "PBMCs", "assay": "Cytotoxicity in PBMCs", "format": "cell-based, human", "conditions": "PBMCs"}, "[6]": {"tested_on": "HeLa CD4/CCR5-LTR/β-gal cells", "assay": "Cytotoxicity by MTT method (MAGI cells)", "format": "cell-based", "conditions": "MTT, mean of triplicate ± SD", "description": "as §2"}, "[7]": {"tested_on": "HIV-1 Ba-L (B-R5)", "assay": "PBMC antiviral assay (RT activity), HIV-1 Ba-L", "format": "cell-based", "conditions": "PHA-P-activated PBMCs, 125 TCID50, day 7, RT activity", "description": "as §1"}, "[8]": {"tested_on": "HIV-1 98IN017 (C-X4)", "assay": "PBMC antiviral assay (RT activity), HIV-1 98IN017", "format": "cell-based", "conditions": "PHA-P-activated PBMCs, 125 TCID50, day 7, RT activity", "description": "as §1"}, "[9]": {"tested_on": "HIV-1 LAI (B-X4)", "assay": "PBMC antiviral assay (RT activity), HIV-1 LAI", "format": "cell-based", "conditions": "PHA-P-activated PBMCs, 125 TCID50, day 7, RT activity", "description": "as §1"}, "[10]": {"tested_on": "HIV-1 LAI", "assay": "MAGI assay, HIV-1 LAI", "format": "cell-based", "conditions": "MAGI cells, 48 h, mean of triplicate ± SD", "description": "as §2"}},
  "data": [
    {"smiles": "Cc1cn([C@H]2C[C@H](N=[N+]=[N-])[C@@H](CO)O2)c(=O)[nH]c1=O", "note": "[AZT, reference compound]", "values": [
      {"measurement": "EC50", "setting": "[1]", "result": "0.012 ± 0.002", "unit": "µM"},
      {"measurement": "EC50", "setting": "[2]", "result": "0.009 ± 0.004", "unit": "µM"},
      {"measurement": "EC50", "setting": "[3]", "result": "0.021 ± 0.011", "unit": "µM"},
      {"measurement": "EC50", "setting": "[4]", "result": "0.018 ± 0.01", "unit": "µM"},
      {"measurement": "CC50", "setting": "[5]", "result": "> 1", "unit": "µM"},
      {"measurement": "CC50", "setting": "[6]", "result": "> 100", "unit": "µM"},
      {"measurement": "EC50", "setting": "[7]", "result": "0.015 ± 0.021", "unit": "µM"},
      {"measurement": "EC50", "setting": "[8]", "result": "0.006 ± 0.002", "unit": "µM"},
      {"measurement": "EC50", "setting": "[9]", "result": "0.012 ± 0.003", "unit": "µM"},
      {"measurement": "EC50", "setting": "[10]", "result": "0.012 ± 0.008", "unit": "µM"}
    ]}
  ]
}
